Earlier results, collected in US20220047541A1, “PHARMACEUTICAL COMPOSITIONS AND METHODS FOR TREATING PARKINSON'S DISEASE” (Pike Therapeutics, Inc., priority 2020, published 2022).

How the values were obtained:
CB2 = CB2 (Homo sapiens, UniProt P34972); details: given as ×, fold or times
CB2, sequence (P34972 whole entry, species assumed): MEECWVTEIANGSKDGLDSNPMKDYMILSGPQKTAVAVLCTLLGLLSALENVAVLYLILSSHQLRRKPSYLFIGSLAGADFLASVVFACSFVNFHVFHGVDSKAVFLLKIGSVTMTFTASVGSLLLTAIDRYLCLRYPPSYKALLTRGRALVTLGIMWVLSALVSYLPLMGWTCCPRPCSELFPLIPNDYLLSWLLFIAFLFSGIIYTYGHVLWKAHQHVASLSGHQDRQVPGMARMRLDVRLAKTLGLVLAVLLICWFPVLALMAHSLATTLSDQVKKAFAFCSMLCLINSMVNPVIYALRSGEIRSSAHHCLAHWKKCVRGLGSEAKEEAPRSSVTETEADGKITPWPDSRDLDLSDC

| SMILES | selectivity for CB2 over CB1 (CB2) | solubility in water |
| --- | --- | --- |
| CCCCCCC(C)(C)c1cc(O)c2c(c1)oc(=O)c1ccc(OC)cc12 [AM-1710] | 54 fold |  |
| CCCn1cc(C(=O)c2ccc(C)c3ccccc23)c2ccccc21 [JWH-120] | 173 fold |  |
| CCCn1c(C)c(C(=O)c2ccc(C)c3ccccc23)c2ccccc21 [JWH-148] | more than 8 fold |  |
| CCCCCCC(C)(C)c1cc(OC)c2c(c1)OC(C)(C)C1CCC(O)CC21 (stereo not drawn) [JWH-350, 11-nor-1-methoxy-3-(1′,1′-dimethylheptyl)-9α-hydroxyhexahydrocannabinol] | 33 fold |  |
| N[C@@H](Cc1ccc(O)c(O)c1)C(=O)O [Levodopa, L-3,4-dihydroxyphenylalanine (S)-2-amino-3-(3,4-dihydroxyphenyl)propanoic acid] |  | slightly soluble |
